According to ChEMBL document CHEMBL1142023, “Structure-activity relationships of dimeric PPAR agonists” (Bioorg Med Chem Lett, 2005):

Tests used:
[1] = biological target: T1, Peroxisome proliferator-activated receptor alpha (Homo sapiens, UniProt Q07869); assay: Effective concentration for human peroxisome proliferator-activated receptor alpha
T1 sequence (Q07869 whole entry): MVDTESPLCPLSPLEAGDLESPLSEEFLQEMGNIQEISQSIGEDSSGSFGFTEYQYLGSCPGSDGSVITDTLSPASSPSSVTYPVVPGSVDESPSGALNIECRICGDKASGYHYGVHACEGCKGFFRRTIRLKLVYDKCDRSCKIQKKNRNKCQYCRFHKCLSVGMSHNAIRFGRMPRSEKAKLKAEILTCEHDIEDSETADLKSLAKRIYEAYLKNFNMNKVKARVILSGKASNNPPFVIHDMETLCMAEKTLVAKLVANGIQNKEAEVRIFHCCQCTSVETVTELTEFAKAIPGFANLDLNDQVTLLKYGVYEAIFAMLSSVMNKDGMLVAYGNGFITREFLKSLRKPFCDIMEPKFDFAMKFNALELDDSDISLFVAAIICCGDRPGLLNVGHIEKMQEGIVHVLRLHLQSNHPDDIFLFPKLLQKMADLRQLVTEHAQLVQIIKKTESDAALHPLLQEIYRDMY

[2] = biological target: T2, Peroxisome proliferator-activated receptor delta (Homo sapiens, UniProt Q03181); assay: Effective concentration for human peroxisome proliferator-activated receptor delta
T2 sequence (Q03181 whole entry): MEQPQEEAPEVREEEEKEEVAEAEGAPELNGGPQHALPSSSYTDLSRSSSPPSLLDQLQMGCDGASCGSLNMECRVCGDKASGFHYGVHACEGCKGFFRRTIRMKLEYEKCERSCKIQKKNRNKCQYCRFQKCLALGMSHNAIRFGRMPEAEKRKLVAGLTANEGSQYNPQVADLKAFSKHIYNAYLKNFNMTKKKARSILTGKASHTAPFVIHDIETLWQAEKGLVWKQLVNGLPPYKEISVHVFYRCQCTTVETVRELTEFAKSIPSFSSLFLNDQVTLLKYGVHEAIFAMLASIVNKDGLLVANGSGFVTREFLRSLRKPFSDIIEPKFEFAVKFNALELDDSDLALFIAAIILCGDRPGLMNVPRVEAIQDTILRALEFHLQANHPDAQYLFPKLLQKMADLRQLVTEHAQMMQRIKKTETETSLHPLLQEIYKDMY

| Compound | EC50 [1] [nM] | EC50 [2] [µM] |
| --- | --- | --- |
| CCOC(Cc1ccc(OC/C=C/C#Cc2ccc(C#C/C=C/COc3ccc(C[C@@H](OCC)C(=O)O)cc3)cc2)cc1)C(=O)O (single isomer, unassigned) | 700 | 2.2 |
| CCOC(Cc1ccc(OCC/C=C/c2ccccc2)cc1)C(=O)O (single isomer, unassigned) | 1100 | 19 |
| CCOC(Cc1ccc(OCC#CCOc2ccc(C[C@@H](OCC)C(=O)O)cc2)cc1)C(=O)O (single isomer, unassigned) | 9600 |  |
| CCOC(Cc1ccc(OC/C=C/c2ccccc2)cc1)C(=O)O (single isomer, unassigned) | 1600 | 18 |
| CCO[C@H](Cc1ccc(OC/C=C(\C)c2ccc(-c3ccc(/C(C)=C/COc4ccc(C[C@@H](OCC)C(=O)O)cc4)cc3)cc2)cc1)C(=O)O | 6700 | 2.1 |
| CCO[C@H](Cc1ccc(OC/C=C(\C)C#Cc2ccc3c(c2)C(=O)c2cc(C#C/C(C)=C/COc4ccc(C[C@@H](OCC)C(=O)O)cc4)ccc2-3)cc1)C(=O)O (stereo in doubt) | 2300 |  |
| CCO[C@H](Cc1ccc(OC/C=C/C#Cc2ccccc2)cc1)C(=O)O | 70 | 6.9 |
| CCO[C@H](Cc1ccc(OC/C=C(/C)C#Cc2ccc(-c3ccc(C#C/C(C)=C/COc4ccc(C[C@@H](OCC)C(=O)O)cc4)cc3)cc2)cc1)C(=O)O | 1800 | 4.1 |
| CCOC(Cc1ccc(OC/C=C(\C)C#Cc2ccc(C#C/C(C)=C/COc3ccc(C[C@@H](OCC)C(=O)O)cc3)cc2)cc1)C(=O)O (single isomer, unassigned) | 1200 | 1.8 |
| CCO[C@@H](Cc1ccc(OCc2ccc(COc3ccc(C[C@H](OCC)C(=O)O)cc3)cc2)cc1)C(=O)O | 15000 |  |
| CCO[C@@H](Cc1ccc(OC/C=C(/C)C#Cc2ccccc2)cc1)C(=O)O | 300 | 11 |
| CCOC(Cc1ccc(OC/C=C/C#CC#C/C=C/COc2ccc(C[C@@H](OCC)C(=O)O)cc2)cc1)C(=O)O (single isomer, unassigned) | 3700 | 15 |
